In US6737383B1, “Herbicidal oxadiazolidines” (priority 1999, dated 2004):

Legend:
rice = assay: Test B flood test rice; format: in vivo, Oryza sativa; details: for Plant response rating, Rice (0 to 10 scale, 0 is no effect, 10 is complete control) / Rice plant response rating (0 to 10 scale, 0 is no effect, 10 is complete control): visual evaluation after twelve to sixteen days; for Rice plant response rating (0 to 10 scale, 0 is no effect, 10 is complete control): under heading Pre-emergence
In short: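 Flood test on plants grown to the 2-leaf stage; treated plants kept in greenhouse twelve to sixteen days, then visually rated against controls on a 0 (no effect) to 10 (complete control) scale.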

sugar beet = assay: Test B pre/postemergence sugar beet; format: in vivo, Beta vulgaris
In short: (§1)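 Herbicidal effect was estimated by eye on a ten-point control scale after plants spent twelve to sixteen days in a greenhouse following soil or foliar treatment. Foliar sprays targeted plants at one to four leaves; all doses were formulated in a non-phytotoxic solvent with surfactant.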

crabgrass = assay: Test B pre/postemergence crabgrass; format: in vivo, Digitaria sanguinalis
In short: as §1

corn = assay: Test B pre/postemergence corn; format: in vivo, Zea mays
In short: as §1

[1] = Rate 62 g/ha, flood test species, Pre-emergence
[2] = Rate 125 g/ha, flood test species
[3] = Rate 250 g/ha, Pre-emergence (flood test species), scale 0 to 10, 0 is no effect, 10 is complete control
[4] = Postemergence, Rate 250 g/ha, scale 0 to 10
[5] = Preemergence, Rate 62 g/ha, scale of 0 to 10 where 0 is no effect and 10 is complete control
[6] = Preemergence, Rate 125 g/ha, scale of 0 to 10 where 0 is no effect and 10 is complete control
[7] = Preemergence, Rate 250 g/ha, scale 0 to 10, 0 is no effect, 10 is complete control
[8] = Preemergence, Rate 500 g/ha, scale 0 to 10, 0 is no effect, 10 is complete control
[9] = Rate 62 g/ha, Postemergence, scale 0 to 10, 0 no effect, 10 complete control
[10] = Rate 125 g/ha, Postemergence, scale 0 to 10, 0 is no effect, 10 is complete control
[11] = Postemergence, Rate 500 g/ha, scale of 0 to 10 where 0 is no effect and 10 is complete control
[12] = Preemergence, Rate 62 g/ha, scale 0 to 10 (0 no effect, 10 complete control)
[13] = Rate 62 g/ha, Postemergence, scale of 0 to 10 where 0 is no effect and 10 is complete control
[14] = Rate 500 g/ha, Pre-emergence section of Table B, 0 to 10 scale (0 no effect, 10 complete control)
[15] = Postemergence, Rate 62 g/ha, scale 0 to 10, 0 is no effect, 10 is complete control
[16] = Postemergence, Rate 125 g/ha, scale of 0 to 10 where 0 is no effect and 10 is complete control
[17] = Preemergence, Rate 250 g/ha, scale 0 to 10 (0 no effect, 10 complete control)
[18] = Preemergence, Rate 500 g/ha, scale of 0 to 10 where 0 is no effect and 10 is complete control
[19] = Postemergence, Rate 250 g/ha, scale of 0 to 10, 0 is no effect, 10 is complete control
[20] = Rate 62 g/ha, headed Pre-emergence (flood test species), scale 0 to 10 (0 no effect, 10 complete control)
[21] = Rate 125 g/ha, Pre-emergence, flood test species, scale 0 to 10 where 0 is no effect and 10 is complete control
[22] = Rate 250 g/ha, Pre-emergence, flood-test species, scale 0 to 10, 0 is no effect, 10 is complete control
[23] = Postemergence, Rate 31 g/ha, visual rating, scale 0 to 10 (0 no effect, 10 complete control)
[24] = Preemergence, Rate 250 g/ha, scale of 0 to 10 where 0 is no effect and 10 is complete control
[25] = Rate 125 g/ha, Postemergence, scale of 0 to 10 where 0 is no effect and 10 is complete control
[26] = Rate 250 g/ha, Postemergence, scale of 0 to 10 where 0 is no effect and 10 is complete control
[27] = Preemergence, Rate 31 g/ha, visual rating, scale 0 to 10 (0 no effect, 10 complete control)
[28] = Preemergence, Rate 125 g/ha, 0 is no effect, 10 is complete control
[29] = Preemergence, Rate 500 g/ha, scale 0 to 10 (0 no effect, 10 complete control)
[30] = Rate 125 g/ha, Postemergence, scale 0 to 10
[31] = Rate 500 g/ha, Postemergence, scale 0 to 10
[32] = Postemergence, Rate 62 g/ha, scale of 0 to 10, 0 is no effect, 10 is complete control
[33] = Preemergence, Rate 125 g/ha, scale 0 to 10, 0 is no effect, 10 is complete control
[34] = Postemergence, Rate 125 g/ha, scale 0 to 10, 0 is no effect, 10 is complete control

Structure (SMILES): CCC=CCn1c(=O)on(C(=O)N(c2ccccc2)C(C)C)c1=O [Compound 454]
- Plant response rating, Rice (0 to 10 scale, 0 is no effect, 10 is complete control) (rice; [1]): 0
- Rice plant response rating (0 to 10 scale, 0 is no effect, 10 is complete control) (rice; [2]): 0
- Rice plant response rating (rice; [3]): 0
- Rice plant response rating (rice; Rate 500 g/ha, Pre-emergence, flood test species, scale 0 to 10 (0 no effect, 10 complete control)): 0
- Sugarbeets plant response rating (sugar beet; [4]): 0
- Plant response rating, Sugarbeets (sugar beet; [5]): 0
- Plant response rating, Sugarbeets (sugar beet; [6]): 0
- Sugarbeets plant response rating (sugar beet; [7]): 0
- Sugarbeets plant response rating (sugar beet; [8]): 0
- Sugarbeets plant response rating (sugar beet; [9]): 0
- Sugarbeets plant response rating (sugar beet; [10]): 0
- Crabgrass plant response rating (crabgrass; [4]): 3
- Crabgrass plant response rating (crabgrass; [11]): 9
- Plant response rating, Crabgrass (crabgrass; [5]): 2
- Plant response rating, Crabgrass (crabgrass; [6]): 3
- Crabgrass plant response rating (crabgrass; [7]): 8
- Crabgrass plant response rating (crabgrass; [8]): 9
- Crabgrass plant response rating (crabgrass; [9]): 2
- Corn plant response rating (corn; [4]): 0
- Corn plant response rating (corn; [11]): 0
- Plant response rating, Corn (corn; [5]): 0
- Plant response rating, Corn (corn; [6]): 0
- Corn plant response rating (corn; [7]): 0
- Corn plant response rating (corn; [8]): 3
- Corn plant response rating (corn; [9]): 0
- Corn plant response rating (corn; [10]): 0

Structure (SMILES): CCN(C(=O)n1oc(=O)n(C2CCCCCC2)c1=O)C1CCCCC1 [Compound 429]
- Rice plant response rating (rice; Postemergence block (flood test species), Rate 250 g/ha, scale 0 to 10): 0
- Rice plant response rating (rice; Postemergence section (flood test species), Rate 500 g/ha, scale of 0 to 10 where 0 is no effect and 10 is complete control): 0
- Rice plant response rating (rice; Rate 125 g/ha, Postemergence section (flood test species), scale 0 to 10, 0 is no effect, 10 is complete control): 0
- Sugarbeets plant response rating (sugar beet; [4]): 0
- Sugarbeets plant response rating (sugar beet; [11]): 0
- Plant response rating, Sugarbeets (sugar beet; [12]): 0
- Plant response rating, Sugarbeets (sugar beet; [6]): 0
- Sugarbeets plant response rating (sugar beet; [7]): 0
- Sugarbeets plant response rating (sugar beet; [8]): 0
- Sugarbeets plant response rating (sugar beet; [10]): 0
- Crabgrass plant response rating (crabgrass; [4]): 2
- Crabgrass plant response rating (crabgrass; [11]): 3
- Plant response rating, Crabgrass (crabgrass; [12]): 7
- Plant response rating, Crabgrass (crabgrass; [6]): 10
- Crabgrass plant response rating (crabgrass; [7]): 10
- Crabgrass plant response rating (crabgrass; [8]): 10
- Crabgrass plant response rating (crabgrass; [13]): 0
- Crabgrass plant response rating (crabgrass; [10]): 1
- Corn plant response rating (corn; [4]): 0
- Corn plant response rating (corn; [11]): 0
- Plant response rating, Corn (corn; [12]): 0
- Plant response rating, Corn (corn; [6]): 0
- Corn plant response rating (corn; [7]): 0
- Corn plant response rating (corn; [8]): 0
- Corn plant response rating (corn; [13]): 0
- Corn plant response rating (corn; [10]): 0

Structure (SMILES): CC(C)N(C(=O)n1oc(=O)n(Cc2nnc(Cl)s2)c1=O)c1ccc(F)cc1F [Compound 645]
- Plant response rating, Rice (0 to 10 scale, 0 is no effect, 10 is complete control) (rice; [1]): 0
- Rice plant response rating (0 to 10 scale, 0 is no effect, 10 is complete control) (rice; [2]): 0
- Rice plant response rating (rice; [3]): 0
- Rice plant response rating (rice; [14]): 0
- Plant response rating, Sugarbeets (sugar beet; [15]): 0
- Sugarbeets plant response rating (sugar beet; [16]): 0
- Sugarbeets plant response rating (sugar beet; [5]): 0
- Sugarbeets plant response rating (sugar beet; [6]): 0
- Plant response rating, Sugarbeets (sugar beet; [17]): 0
- Plant response rating, Sugarbeets (sugar beet; [18]): 0
- Plant response rating, Crabgrass (crabgrass; [15]): 0
- Crabgrass plant response rating (crabgrass; [16]): 0
- Crabgrass plant response rating (crabgrass; [19]): 0
- Plant response rating, Crabgrass (crabgrass; [11]): 3
- Crabgrass plant response rating (crabgrass; [5]): 2
- Crabgrass plant response rating (crabgrass; [6]): 3
- Plant response rating, Crabgrass (crabgrass; [17]): 4
- Plant response rating, Crabgrass (crabgrass; [18]): 5
- Plant response rating, Corn (corn; [15]): 0
- Corn plant response rating (corn; [16]): 0
- Corn plant response rating (corn; [19]): 0
- Plant response rating, Corn (corn; [11]): 0
- Corn plant response rating (corn; [5]): 0
- Corn plant response rating (corn; [6]): 0
- Plant response rating, Corn (corn; [17]): 0
- Plant response rating, Corn (corn; [18]): 0

Structure (SMILES): COCC(C)N(C(=O)n1oc(=O)n(-c2ccccc2C)c1=O)c1ccc(F)cc1 (stereo not shown) [Compound 324]
- Rice plant response rating (rice; Rate 31 g/ha, Pre-emergence section (flood test species), scale 0 to 10): 0
- Rice plant response rating (rice; [20]): 0
- Rice plant response rating (rice; [21]): 0
- Rice plant response rating (rice; [22]): 0
- Sugarbeets plant response rating (sugar beet; [23]): 0
- Sugarbeets plant response rating (sugar beet; [5]): 0
- Sugarbeets plant response rating (0 to 10 scale) (sugar beet; Preemergence, Rate 125 g/ha): 0
- Sugarbeets plant response rating (sugar beet; [24]): 0
- Sugarbeets plant response rating (sugar beet; [9]): 0
- Sugarbeets plant response rating (sugar beet; [25]): 0
- Plant response rating, Sugarbeets (sugar beet; [26]): 0
- Crabgrass plant response rating (crabgrass; [23]): 0
- Crabgrass plant response rating (crabgrass; [27]): 0
- Crabgrass plant response rating (crabgrass; [5]): 0
- Crabgrass plant response rating (0 to 10 scale) (crabgrass; Preemergence, Rate 125 g/ha): 0
- Crabgrass plant response rating (crabgrass; [24]): 0
- Crabgrass plant response rating (crabgrass; [9]): 0
- Crabgrass plant response rating (crabgrass; [25]): 0
- Plant response rating, Crabgrass (crabgrass; [26]): 0
- Corn plant response rating (corn; [23]): 0
- Corn plant response rating (corn; [27]): 0
- Corn plant response rating (corn; [5]): 0
- Corn plant response rating (0 to 10 scale) (corn; Preemergence, Rate 125 g/ha): 0
- Corn plant response rating (corn; [24]): 0
- Corn plant response rating (corn; [9]): 0
- Corn plant response rating (corn; [25]): 0
- Plant response rating, Corn (corn; [26]): 0

Structure (SMILES): CCN(C(=O)n1oc(=O)n(C(C)C)c1=O)c1nncs1 [Compound 190]
- Rice plant response rating (rice; [20]): 0
- Rice plant response rating (rice; [21]): 0
- Rice plant response rating (rice; [22]): 0
- Plant response rating, Rice (rice; Rate 500 g/ha, headed Pre-emergence (flood test species), scale 0 to 10 (0 no effect, 10 complete control)): 0
- Sugarbeets plant response rating (sugar beet; [5]): 0
- Sugarbeets plant response rating (0 to 10 scale) (sugar beet; [28]): 0
- Sugarbeets plant response rating (sugar beet; [7]): 0
- Sugarbeets plant response rating (sugar beet; [29]): 0
- Sugarbeets plant response rating (sugar beet; [13]): 0
- Sugarbeets plant response rating (sugar beet; [30]): 0
- Plant response rating (0 to 10; 0 is no effect, 10 is complete control), Sugarbeets (sugar beet; Rate 250 g/ha, Postemergence): 0
- Sugarbeets plant response rating (sugar beet; [31]): 0
- Crabgrass plant response rating (crabgrass; [5]): 0
- Crabgrass plant response rating (0 to 10 scale) (crabgrass; [28]): 0
- Crabgrass plant response rating (crabgrass; [7]): 0
- Crabgrass plant response rating (crabgrass; [29]): 0
- Crabgrass plant response rating (crabgrass; [13]): 0
- Crabgrass plant response rating (crabgrass; [30]): 0
- Plant response rating (0 to 10; 0 is no effect, 10 is complete control), Crabgrass (crabgrass; Rate 250 g/ha, Postemergence): 0
- Crabgrass plant response rating (crabgrass; [31]): 0
- Corn plant response rating (corn; [5]): 0
- Corn plant response rating (0 to 10 scale) (corn; [28]): 0
- Corn plant response rating (corn; [7]): 0
- Corn plant response rating (corn; [29]): 0
- Corn plant response rating (corn; [13]): 0
- Corn plant response rating (corn; [30]): 0
- Plant response rating (0 to 10; 0 is no effect, 10 is complete control), Corn (corn; Rate 250 g/ha, Postemergence): 0
- Corn plant response rating (corn; [31]): 0

Structure (SMILES): CCCCCCn1c(=O)on(C(=O)N(c2ccccc2)C(C)C)c1=O [Compound 558]
- Rice plant response rating (rice; [14]): 0
- Sugarbeets plant response rating (sugar beet; [32]): 0
- Plant response rating, Sugarbeets (sugar beet; [11]): 2
- Sugarbeets plant response rating (sugar beet; [12]): 0
- Sugarbeets plant response rating (sugar beet; [33]): 0
- Sugarbeets plant response rating (0 to 10 scale) (sugar beet; Preemergence, Rate 250 g/ha): 0
- Sugarbeets plant response rating (sugar beet; [18]): 2
- Plant response rating, Sugarbeets (sugar beet; [26]): 2
- Crabgrass plant response rating (crabgrass; [32]): 0
- Crabgrass plant response rating (crabgrass; [34]): 0
- Plant response rating, Crabgrass (crabgrass; [11]): 8
- Crabgrass plant response rating (crabgrass; [12]): 8
- Crabgrass plant response rating (crabgrass; [33]): 9
- Crabgrass plant response rating (0 to 10 scale) (crabgrass; Preemergence, Rate 250 g/ha): 9
- Crabgrass plant response rating (crabgrass; [18]): 9
- Plant response rating, Crabgrass (crabgrass; [26]): 8
- Corn plant response rating (corn; [32]): 0
- Corn plant response rating (corn; [34]): 0
- Plant response rating, Corn (corn; [11]): 0
- Corn plant response rating (corn; [12]): 0
- Corn plant response rating (corn; [33]): 0
- Corn plant response rating (0 to 10 scale) (corn; Preemergence, Rate 250 g/ha): 0
- Corn plant response rating (corn; [18]): 0
- Plant response rating, Corn (corn; [26]): 0
